Marks after values point to notes of the source that are not given here.
What was measured:
[1] = Salt screening (XRPD, chiral purity of hits); type: physicochemical
Procedure: Based on the pKa of I-1 free form, 23 counter ions were selected as salt/cocrystal forming agents. Methanol, acetone and isopropyl acetate were used as screening solvents. 1.0 equivalent of selected counter ions/coformers was applied for salt screening. Slurry equilibration, slow evaporation and anti-solvent addition were used as crystallization methods. In total, about 70 screening experiments were conducted.
About 50 mg of I-1 Form A were added to a suitable amount of solvent and 1.0 equivalent of counter ions were added under stirring at 50° C. for 2 hours and then at 25° C. for at least 12 hours. MeOH, acetone and IPAc were used as screening solvents.
Obtained suspensions were taken out and centrifuged. Solids obtained were analyzed by XRPD and salt screening results were summarized in Table 5.1, Table 5.2, and Table 5.3.

[2] = cited from earlier work
[3] = Polymorph screening (equilibration, anti-solvent, slow evaporation, slow cooling, temperature cycling, heating-cooling; XRPD and SFC); type: physicochemical; conditions: for ee %(SFC): 6 days
Procedure: This polymorph screening program of compound I-1 free form was performed with two batches of the pure enantiomer. Both batches are crystalline and is assigned as Form A. The polymorphic behaviors of the enantiomer were investigated by equilibration at 25° C. and 50° C., equilibration under a temperature cycle, crystallization from hot saturated solutions by slow cooling, slow evaporation, precipitation by addition of anti-solvent, and DSC heating-cooling cycle experiments. Relative stability of identified polymorphs was investigated by competitive slurry experiments.
About 50 mg of I-1 Form A was weighed into a 2 mL glass vial and equilibrated in suitable amount of solvents (pretreated by molecular sieves) at 25° C. for 2 weeks with a stirring plate and with protection from light. Obtained suspensions were filtered with 0.45 μm nylon membrane and the solid parts (wet cake) were investigated by XRPD. When differences were observed, additional investigations were performed (e.g. DSC, TGA, ^1H-NMR, SFC).
About 50 mg of I-1 Form A was weighed into 2 mL glass vials and equilibrated in suitable amount of solvents (pretreated by molecular sieves) at 50° C. for 10 days with a stirring plate and with protection from light. Obtained suspensions were filtered with 0.45 μm nylon membrane and the solid parts (wet cake) were investigated by XRPD. When differences were observed, additional investigation was performed (e.g. DSC, TGA, ^1H-NMR, SFC).
I-1 Form A was dissolved in a good solvent. […] The solvents used were pretreated by molecular sieve. Precipitates were collected by filtration. The solid part (wet cake) was investigated by XRPD. […] When differences were observed, additional investigations were performed (e.g. DSC, TGA, ^1H-NMR, SFC).
Based on approximate solubility results, I-1 Form A was dissolved in suitable amount of solvents (pretreated by molecular sieves). Obtained solutions were filtered by 0.45 μm nylon filter. […] Solid residues were examined for their polymorphic form. When differences were observed, additional investigations were performed (e.g. DSC, TGA, ^1H-NMR, SFC).
Approximate 50 mg of batch I-1 Form A were dissolved in the minimal amount of selected solvents (without pretreatment by molecular sieves) at 50° C. Obtained solutions were filtered by 0.45 μm nylon filter. […] Precipitates were collected by filtration. The solid parts (wet cake) were investigated by XRPD. When differences were observed, additional investigations were performed (e.g. DSC, TGA, ^1H-NMR, SFC). When no precipitation was obtained or only a few solids were obtained, the solutions were placed at 5° C. for crystallization.
About 50 mg of I-1 Form A was equilibrated in different solvents (pretreated by molecular sieves) under a temperature cycle between 5° C. to 50° C. at a heating/cooling rate of 0.2° C./min for 10 cycles and with protection from light. After 10 cycles, precipitates were collected at 5° C. by filtration. The solid parts (wet cake) were investigated by XRPD. When differences were observed, additional investigations were performed (e.g. DSC, TGA, 1H-NMR, SFC).
Polymorphic behavior of I-1 Form A was investigated by two different heating-cooling cycles of DSC. Cycle 1:30° C. to 280° C. at 10° C./min; 280° C. to −20° C. at 20° C./min; reheat to 300° C. at 10° C./min. Cycle 2:30° C. to 280° C. at 10° C./min; 280° C. to-20° C. at 2° C./min; reheat to 300° C. at 10° C./min.

[4] = Light and glassware influence on racemization of II-1; type: physicochemical
Procedure: The effect of glassware surface pH and light on II-1 racemization was evaluated.

[5] = crystalline hit dried at 50° C. for 21 h
[6] = crystalline hits of salt screening, listed as I-5 Form A
[7] = crystalline hits of salt screening, listed as I-5 Form B
[8] = crystalline hits of salt screening, listed as III-6 Form A
[9] = equilibration of II-1 in 1,4-dioxane, 50° C.
[10] = crystalline hits of salt screening, listed as III-2 Form A
[11] = crystalline hits of salt screening, listed as III-2 Form B
[12] = crystalline hits of salt screening, listed as I-2 Form A

N#Cc1c(-c2cc(NC(=O)c3cc(F)cc(C(F)(F)F)c3)c3c(c2)C(=O)N[C@H]3c2cc(F)ccc2Cl)ccc2ncnn12 [Compound I-5]
Salt screening result (anti-solvent) ([1]; 1.0 equiv. naphthalene-1,5-disulfonic acid, Acetone/MTBE): + (I-5 Form B) (Salt hits)
Chiral purity of salt screening solid ([1]; anti-solvent, 1.0 equiv. naphthalene-1,5-disulfonic acid, Acetone/MTBE): Chiral purity: 88.3%
Chiral purity (by HPLC) [1, 5]: C. for 21 h: 100%
Crystallinity (By XRPD) [1, 5]: low crystallinity
Chiral purity (by HPLC) [1, 6]: 100% dried at 50°
Crystallinity (By XRPD) [1, 6]: Medium crystallinity
Chiral purity (by HPLC) [1, 7]: 88.3%
Crystallinity (By XRPD) [1, 7]: Medium

N#Cc1c(-c2cc(NC(=O)c3cc(F)cc(C(F)(F)F)c3)c3c(c2)C(=O)NC3c2cc(F)ccc2Cl)ccc2ncnn12 (stereo not shown) [III-6]
Salt screening result (slurry crystallization) ([1]; 1.0 equiv. naphthalene-2-sulfonic acid, Acetone): + (Salt hits)
Chiral purity (by HPLC) [1, 8]: 43.2%
Crystallinity (By XRPD) [1, 8]: low
Chiral purity of salt screening solid ([1]; slurry, 1.0 equiv. naphthalene-2-sulfonic acid, Acetone): Chiral purity: 43.2%

O=S(=O)(O)c1ccc2ccccc2c1 [Naphthalene-2-sulfonic acid]
pKa(s) [2]: 0.17

N#Cc1c(-c2cc(NC(=O)c3cc(F)cc(C(F)(F)F)c3)c3c(c2)C(=O)N[C@@H]3c2cc(F)ccc2Cl)ccc2ncnn12 [II-1, (S)-N-(3-(2-chloro-5-fluorophenyl)-6-(5-cyano-[1,2,4]triazolo[1,5-a]pyridin-6-yl)-1-oxoisoindolin-4-yl)-3-fluoro-5-(trifluoromethyl)benzamide]
XRPD (6 days) [3, 9]: II-1 Form B
ee %(SFC) [3, 9]: ee %(SFC): −99.48%*
ee %(SFC) ([3]; equilibration of II-1 in ACN/water(80:20, v/v), 50° C.): ee %(SFC): −99.24%*
ee %(SFC) ([3]; equilibration of II-1 in EtOH/water(50:50, v/v), 50° C.): ee %(SFC): −99.78%*
ee %(SFC) ([3]; equilibration of II-1 in Methanol, 50° C.): ee %(SFC): −99.66%*
XRPD (6 days) ([3]; equilibration of II-1 in THF/water(85:15, v/v) a.w. 0.9, 25° C.): II-1 Form C (include the
ee %(SFC) ([3]; equilibration of II-1 in THF/water(85:15, v/v), 25° C.): ee %(SFC): −99.34%*
racemization in solution ([4]; basic glassware, promoted by light): Noticeable racemization
racemization in solution ([4]; neutral and acidic glassware, absence and presence of light, up to 13 days): no significant racemization

N#Cc1c(-c2cc(NC(=O)c3cc(F)cc(C(F)(F)F)c3)c3c(c2)C(=O)NC3c2cc(F)ccc2Cl)ccc2ncnn12 (stereo not shown) [III-2]
Salt screening result (slurry crystallization) ([1]; 1.0 equiv. HCl, ACN (second block of table)): + (III-2 Form B) (Salt hits)
Salt screening result (slurry crystallization) ([1]; 1.0 equiv. HCl, Acetone): + (III-2 Form A) (Salt hits)
Salt screening result (slurry crystallization) ([1]; 1.0 equiv. HCl, Acetone (second block of table)): + (III-2 Form A) (Salt hits)
Chiral purity (by HPLC) [1, 10]: 30.8%
Crystallinity (By XRPD) [1, 10]: Medium
Chiral purity (by HPLC) [1, 11]: 20.3%
Crystallinity (By XRPD) [1, 11]: Low
Chiral purity of salt screening solid ([1]; slurry, 1.0 equiv. HCl, ACN (second block of table)): Chiral purity: 20.2%
Chiral purity of salt screening solid ([1]; slurry, 1.0 equiv. HCl, Acetone): Chiral purity: 30.8%
Chiral purity of salt screening solid ([1]; slurry, 1.0 equiv. HCl, Acetone (second block of table)): Chiral purity: 45.4%

N#Cc1c(-c2cc(NC(=O)c3cc(F)cc(C(F)(F)F)c3)c3c(c2)C(=O)N[C@H]3c2cc(F)ccc2Cl)ccc2ncnn12 [Compound I-2]
Salt screening result (slurry crystallization) ([1]; 1.0 equiv. HCl, Isopropyl acetate): + (Salt hits)
Chiral purity (by HPLC) [1, 12]: 89.7%
Crystallinity (By XRPD) [1, 12]: Low
Chiral purity of salt screening solid ([1]; slurry, 1.0 equiv. HCl, Isopropyl acetate): Chiral purity: 89.7%

O=C(O)CC(O)(CC(=O)O)C(=O)O [Citric acid]
pKa(s) [2]: 3.12, 4.76, 6.39

— patent US20260125374A1, “PI3K-ALPHA INHIBITORS AND METHODS OF MAKING AND USING THE SAME” (Relay Therapeutics, Inc., priority 2021, published 2026)
